Laboratory results as given in paper PMC2621068 (Neuropeptides, 2008).

Key:
[1] = test system: female Kuming mice; settings: mouse, in vivo
[2] = test system: Kuming mice; settings: mouse, in vivo
[3] = test system: Kuming mice; type: in vivo, mouse; settings: n = 8

Compound: CC(C(O)c1ccc(O)cc1)N1CCC(Cc2ccccc2)CC1 (centres unmarked) [ifenprodil, reference compound]
- Paw withdrawal latency after administration, 30 min [1]: 11.1 ± 3.7 s
- Paw withdrawal latency after administration, 90 min [1]: 11.1 ± 4.6 s
- Paw withdrawal latency after administration, 150 min [1]: 11.2 ± 3.0 s
- Paw withdrawal latency after administration, 240 min [1]: 12.8 ± 3.0 s
- Paw withdrawal latency before administration [1]: 10.8 ± 2.4 s
- antinociception in the hot-plate test (in words) [1]: had no effect
- Increase in paw width [2]: 1.10 ± 0.05 mm
- Injected paw width, after formalin injection [2]: 2.70 ± 0.04 mm
- Injected paw width, before formalin injection [2]: 1.59 ± 0.04 mm
- first phase response of the formalin test (in words) [3]: without effect in both phases
- second phase response of the formalin test (in words) [3]: without effect in both phases
